From ChEMBL document CHEMBL3988442, “University of Dundee, Small-Polar-MMV Screening Library” (2021) come the findings set out here.

In the assay the target is ClpP1P2 (Mycobacterium tuberculosis (strain ATCC 25618 / H37Rv), UniProt P9WPC3+P9WPC5). As to the kind of experiment: in vitro assay to detect presence of AMC directly proportional to the activity of ClpP1P2. GHDDI collaboration. Format: functional.
Chain of ClpP1P2 (P9WPC5 whole entry): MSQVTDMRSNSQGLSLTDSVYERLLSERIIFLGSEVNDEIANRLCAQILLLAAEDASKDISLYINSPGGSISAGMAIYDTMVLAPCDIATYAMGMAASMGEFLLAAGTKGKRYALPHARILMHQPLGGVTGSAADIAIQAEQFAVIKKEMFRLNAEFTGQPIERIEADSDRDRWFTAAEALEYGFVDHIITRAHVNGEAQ
Chain of ClpP1P2 (P9WPC3 whole entry): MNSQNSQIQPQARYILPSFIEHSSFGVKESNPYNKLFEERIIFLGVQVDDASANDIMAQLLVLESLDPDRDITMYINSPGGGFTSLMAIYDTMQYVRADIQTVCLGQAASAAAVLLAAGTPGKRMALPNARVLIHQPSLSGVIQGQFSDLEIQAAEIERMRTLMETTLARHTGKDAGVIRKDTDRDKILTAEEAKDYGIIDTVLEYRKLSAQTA

Regarding `Cc1nc(-c2cc(C(=O)N3CCCN(C)CC3)c3ccccn23)cn1C`, the concentration for half-maximal inhibition (IC50) (as a rule, the midpoint of a concentration-inhibition curve) is > 100 µM.
As for `Cc1cccc(CNc2cncc(-n3cccn3)n2)c1`, the IC50 is > 100 µM.
For `CS(=O)(=O)N1CC[C@]2(O)CCN(c3cc(C#N)ccn3)C[C@@H]2C1` the value was > 100 µM; for `CC1CN(CC(=O)NCc2ccccn2)CCN1Cc1nccn1C` (stereo not drawn), > 100 µM.
The result for `COc1cc2nc(NCCNS(C)(=O)=O)cc(C)c2cc1OC` reads > 100 µM; that for `CNc1cnc(CC2COCCN(Cc3ccccc3)C2)cn1` (stereo not drawn), > 100 µM; that for `CC(C(=O)N1CCCN(c2ccccc2C#N)CC1)n1cccn1` (stereo not drawn), > 100 µM.
The result for `Fc1ccccc1-c1cc(N2[C@@H]3CC[C@H]2CNC3)n2nccc2n1` reads > 100 µM; that for `CC(C)Cc1cc(-c2cc(-c3ccc[nH]3)nc(N)c2C#N)n[nH]1`, > 100 µM.
`CCNC(=O)c1c2c(N3CCN(C)CC3)ncnc2n2ccccc12`: the half-inhibitory concentration (IC50) is > 100 µM.
The result for `COc1ccccc1-c1nc(C(=O)N(C)C)n2ccncc12` reads > 100 µM.
The result for `O=C(NCCOC1CCCC1)c1ccc(-c2ccco2)[nH]c1=O` reads > 100 µM.
The result for `COc1cc2ccccc2cc1C(=O)N1CCCC(c2nncn2C)C1` (stereo not drawn) reads > 100 µM.
As for `Cc1ccoc1C(=O)NC1CCN(C(=O)Nc2ccccn2)CC1`, the IC50 was > 100 µM.
For `Cc1nc(CN(C)C2CCN(Cc3ccc4c(c3)CCC4)C2)no1` (stereo not drawn) the value was > 100 µM; for `CCc1ncc2c(n1)CN(Cc1nnc(Cc3ccccc3)o1)CC2`, > 100 µM; for `Cc1cn2c(=O)c(-c3ccnc(N[C@@H](C)CO)n3)cnc2s1`, > 100 µM.
For `Cc1nc(N2CCCC2C(=O)NC(C)(C)CO)nc2ccccc12` (stereo not drawn), the IC50 was > 100 µM.
`c1cnc(Nc2cncc(C3CCCN3)n2)cn1` (stereo not drawn): the concentration for half-maximal inhibition (IC50) is > 100 µM.
The result for `NC(=O)C1CCN(c2nc3nccc(-c4cccnc4)c3c(=O)[nH]2)CC1` reads > 100 µM.
With `Cn1ccnc1CN1CCN(CC(O)c2cc(F)ccc2F)CC1` (stereo not drawn), the half-maximal inhibitory concentration (IC50) is > 100 µM.
As to `CN1CCc2c(sc3c2C(=O)NC(/C=C/c2ccccc2)N3)C1` (stereo not drawn), the IC50 was > 100 µM.
For `CC(C)C1Nc2ccccc2C(=O)N1CC(=O)Nc1nc2c(s1)CCC2` (stereo not drawn) the value was > 100 µM.
The result for `Nc1cccc(-c2cccc3ccnn23)n1` reads > 100 µM; that for `Cc1n[nH]c(=O)c2c(NC(=O)CN3CCC(O)CC3)oc(C)c12`, > 100 µM; that for `CCN(CC)c1ccc(NS(=O)(=O)c2cnn(C(C)C)c2)cn1`, > 100 µM.
`CCC(C)(C)NC(=O)c1ccc(-c2ccco2)[nH]c1=O`: the IC50 was > 100 µM.
Take `CCOC(=O)C1(Cc2cccc(OC)c2)CCN(Cc2ncc[nH]2)CC1`: the 50% inhibitory concentration (IC50) was > 100 µM.
With `CCN(CC)c1ccc(NS(=O)(=O)c2cnn(CC)c2)cn1`, the IC50 was > 100 µM.
As to `COCCNC(=O)c1cc(-c2cc[nH]n2)n2ccccc12`, the IC50 is > 100 µM.
For `CC(C)N(CCC#N)C(=O)c1cnc(-c2ccc3c(c2)OCO3)s1` the value was > 100 µM; for `CC(C)Oc1ccc(C(=O)N2CCC(Nc3cccnn3)CC2)cn1`, > 100 µM.
On to `Cc1nn(C)c(C)c1C1CCCN1C(=O)c1ccnc(N(C)C)c1` (stereo not drawn), for which the half-maximal inhibitory concentration (IC50) was > 100 µM.
Turning to `COc1ccc2nc(O)c(CN(C)Cc3ncc[nH]3)cc2c1`, the IC50 is > 100 µM.
In the case of `COc1ccc(C2Nc3cc(Cl)ccc3C3=NCCN32)cc1CO` (stereo not drawn), the IC50 is > 100 µM.
The result for `CC(=O)Nc1ccc2nc(CN(C)Cc3noc(C)n3)ccc2c1` reads > 100 µM; that for `CN(Cc1cccc(C(N)=O)c1)CC1CCCN1c1cccnn1` (stereo not drawn), > 100 µM; that for `Cn1cc(CN2CCCN(C(=O)c3cn4ccccc4n3)CC2)cn1`, > 100 µM.
The result for `O=C(NCCOC1CCCCC1)c1ccc(-c2ccco2)[nH]c1=O` reads > 100 µM; that for `Cc1c(-c2cccs2)nn2c(O)c3c(nc12)CN(C(=O)C1CC1)C3`, > 100 µM.
Consider `O=C1NC2(CCN(C(=O)CN3CCOCC3)CC2)Nc2ccc(Cl)cc21`, for which the IC50 was > 100 µM.
The result for `Cc1cnn(CC2CN(Cc3nc4ccccc4o3)CCO2)c1` (stereo not drawn) reads > 100 µM; that for `O=C(NCc1cccnc1)c1ccc2nccn2c1`, > 100 µM; that for `c1ncc2c(n1)CN(Cc1nc(-c3ccoc3)no1)CC2`, > 100 µM.
For `COc1cc(OC)c2nc(NCCN3CCNC3=O)cc(C)c2c1` the value was > 100 µM; for `CN1CCN(c2nc(O)c3c(-c4ccccn4)ccnc3n2)CC1`, > 100 µM; for `Cc1cnn(CC2CN(Cc3csc(C4CCCC4)n3)CCO2)c1` (stereo not drawn), > 100 µM.
`COc1ccc2c(c1)C(=O)N(C)C1(CCN(CC3CC3)CC1)N2`: the 50% inhibitory concentration (IC50) is > 100 µM.
For the molecule `O=C(c1c2c(N3CCOCC3)ncnc2n2ccccc12)N1CCCC1`, the half-maximal inhibitory concentration (IC50) is > 100 µM.
For the molecule `O=C(c1nc(=O)[nH]c2ccccc12)N1CCCC2(CCNC2)C1` (stereo not drawn), the IC50 was > 100 µM.
Regarding `O=C(Cn1cccc2cc(-c3ccc(F)cc3)nc1-2)N1CCC(O)CC1`, the IC50 was > 100 µM.
For `CCNCCOc1ccc(-c2cc(N)nc3[nH]ccc23)cc1` the value was > 100 µM.
The result for `CN(C)c1ncc(-c2cc(C(=O)NC(C)(C)CO)n(CC3CC3)c2)cn1` reads > 100 µM; that for `CS(=O)(=O)N1CCCCCC1C1CCN(c2ncccc2C#N)CC1` (stereo not drawn), > 100 µM; that for `COc1ccc(C(=O)N(C)Cc2nnc3ccccn23)c(OC)c1OC`, > 100 µM.
For `Cc1noc(CN(CCc2cccs2)Cc2cccc(C#N)c2)n1` the value was > 100 µM; for `CC(C)n1nc2c(cc1=O)CN(Cc1nc3ccccc3o1)CC2`, > 100 µM.
Regarding `COCCN1CCC(CNc2cnc3ccccc3n2)CC1`, the IC50 is > 100 µM.
The result for `Cc1ccccc1-c1noc(CN2CCc3cncnc3C2)n1` reads > 100 µM.
Turning to `N#Cc1cc2cc(Cl)cnc2nc1O`, the IC50 is > 100 µM.
For `CCc1nccn1-c1cccc(C2CCCN2)n1` (stereo not drawn), the 50% inhibitory concentration (IC50) is > 100 µM.
As to `CCCn1cc(-c2cc(-c3cc(CC)n[nH]3)c(C#N)c(N)n2)c(C)n1`, the concentration for half-maximal inhibition (IC50) was > 100 µM.
For `N#Cc1c(N)nc2c(c1C1CCOC1)CCc1cc(O)ccc1-2` (stereo not drawn) the value was > 100 µM.
The result for `Cc1cccc2c1OCCC2NCc1c(C)nn(C)c1N(C)C` (stereo not drawn) reads > 100 µM; that for `COCc1cccc(CNCc2c(C)nn(C)c2N2CCOCC2)c1`, > 100 µM.
The result for `Cc1ccc(NC2CCN(C(=O)CCc3ccncc3)CC2)nn1` reads > 100 µM; that for `CCOc1ccc2[nH]c(=O)c(CN3CCCC(CO)(CO)C3)cc2c1`, > 100 µM.
As to `CN(C)C(=O)CN1CCC2(CC1)CC(=O)c1ccc3ccccc3c1O2`, the 50% inhibitory concentration (IC50) is > 100 µM.
On to `COCc1nnc(NC(=O)CN2C(=O)c3ccccc3NC2C(C)C)s1` (stereo not drawn), for which the IC50 was > 100 µM.
The result for `Cc1ccc(CN2CCC3(C2)C(=O)N(CC2CC2)c2ccccc23)s1` (stereo not drawn) reads > 100 µM.
As for `COCCNc1nc(NCCc2ccccc2)nc2nccnc12`, the IC50 is > 100 µM.
For `O=C1NC2(CCN(CC(=O)N3CCOCC3)CC2)Nc2ccc(Br)cc21` the value was > 100 µM; for `CCc1ccc(S(=O)(=O)N2CCCC3(CCCN3S(C)(=O)=O)C2)cc1` (stereo not drawn), > 100 µM; for `COC(=O)[C@@H]1C[C@H](NC(=O)c2cc(=O)[nH]c3ccc(C)cc23)CN1C`, > 100 µM.
For `CC(Nc1ncnc2c1NC(=O)CN2)c1ccccn1` (stereo not drawn) the value was > 100 µM.
For `CC(C)Nc1ccnc(-c2ccnc3c2ccn3C)n1` the value was > 100 µM; for `O=C(c1nc(=O)[nH]c2ccccc12)N1CCCC(CC2CC2)(C(=O)O)C1` (stereo not drawn), > 100 µM; for `CCN(CC1CCOC1)C(=O)c1cnc2onc(C)c2c1` (stereo not drawn), > 100 µM.
As for `Cc1cc(C)n(CC2CCCN2C(=O)c2ccnc(N(C)C)c2)n1` (stereo not drawn), the half-maximal inhibitory concentration (IC50) was > 100 µM.
Regarding `Cc1cccc2c1NC1(CCOCC1)NC2=O`, the concentration for half-maximal inhibition (IC50) is > 100 µM.
For `CNC(=O)c1cc2c(nc1NCC1CC1)CCN(S(=O)(=O)C1CC1)CC2` the value was > 100 µM; for `CC1CN(C(=O)CN(Cc2ccccc2)C2CC2)CCO1` (stereo not drawn), > 100 µM.
For `COc1ccc(CNC(=O)Nc2cccnc2N2CCCC2)cc1OC`, the IC50 was > 100 µM.
The result for `Cc1cnc(CCNc2cccc(CC3CCCNC3)n2)s1` (stereo not drawn) reads > 100 µM.
Consider `Cc1nn(CCNc2ncnc3c2NC(=O)CN3)c(C)c1Cl`, for which the concentration for half-maximal inhibition (IC50) is > 100 µM.
As for `Cc1nc(C(=O)N2CCC(c3cc(CCO)n(C)n3)C2)co1` (stereo not drawn), the half-inhibitory concentration (IC50) was > 100 µM.
On to `N#Cc1ccc(F)c(CN2CCNC(=O)C2c2cccs2)c1` (stereo not drawn), for which the IC50 is > 100 µM.
Consider `Cc1cccc(NC(=O)c2ccc(OCc3nnnn3C)cc2)n1`, for which the half-inhibitory concentration (IC50) was > 100 µM.
`CC(C)c1nnc2n1CCN(Cc1csc(CC(=O)N(C)C)n1)C2`: the IC50 was > 100 µM.
The result for `Cc1cc(C)n(CCNCc2cc(-c3ccccc3)c[nH]c2=O)n1` reads > 100 µM; that for `CN(C)c1ncc(C2Nc3ccccc3C3=NCCCN32)cn1` (stereo not drawn), > 100 µM.
The result for `Cc1cccc2nc(CN3CCCC3Cn3cccn3)cn12` (stereo not drawn) reads > 100 µM; that for `Cn1cnc2ccc(NC(=O)CC3CCN(S(C)(=O)=O)CC3)cc21`, > 100 µM.
The result for `COCCN1CC(C(=O)NCc2cccnc2-n2cccn2)CC1=O` (stereo not drawn) reads > 100 µM.
For the molecule `CN(Cc1ccsc1)C(=O)Nc1ccc(N(C)C)nc1`, the 50% inhibitory concentration (IC50) was > 100 µM.
As for `Cc1sc2ncc(-c3ccnc(NC4CCN(C)CC4)n3)c(=O)n2c1C`, the IC50 was > 100 µM.
With `OCCNc1nc(NCc2cccnc2)nc2nccnc12`, the IC50 is > 100 µM.
For `O=C1CC(Nc2ccc3nccnc3n2)CN1c1ccccc1` (stereo not drawn) the value was > 100 µM; for `O=C(CCc1ccc(-c2ccccc2)[nH]1)N1CCCC(n2ccnc2)C1` (stereo not drawn), > 100 µM; for `CCC1(CO)CCCN(c2ncccc2C#N)C1` (stereo not drawn), > 100 µM.
Consider `O=C(c1cc(F)ccc1F)C1CCN(C(=O)c2cnccn2)CC1`, for which the IC50 is > 100 µM.
In the case of `CCC(C)NC(=O)c1ccc(-c2ccco2)[nH]c1=O` (stereo not drawn), the IC50 is > 100 µM.
Consider `CCN1CCc2c(sc3c2C(=O)NC(/C=C\c2ccccc2)N3)C1` (stereo not drawn), for which the IC50 is > 100 µM.
